The text below walks through data of US5639751A, “N-acyl-2,3-benzodiazepine derivatives for treating acute and chronic neurodegenerative disorders” (priority 1990, dated 1997).

Read-outs that look alike come from different tables or passages of the source.

The test system of one data set is AMPA/kainate receptors. The experiment in a line: Inhibition of synaptic field potentials (population spikes) in rat hippocampal slices. Type of data set: cell-based. The note with it: population spikes in CA1, after 30 min. perfusion. The procedure:
Synaptic potentials in the CA1 area of hippocampus evoked by stimulation of the Schaffer collaterals are mediated by AMPA/kainate receptors. […] Lett. 92, 64 (1988)].
The inhibition of population spikes in CA1 was studied in rat hippocampal slices after 30 min. perfusion application of the test compounds.

The test system of data set [1] is cats. Description: Effects on spinal root reflex potentials in spinalized and immobilized cats. Format: in vivo. The following applies: for minimal effective dose: Felis catus. As for the experimental part:
The effect of compound of Example 15(16) on the spinal root potentials in cats was tested in spinalized and immobilized animals [Neuropharmacology 21, 161 (1989)].

In data set [2] the test system is male CFLP mice. Description: Anticonvulsive effect in mice, electroshock test. Format: in vivo. The following applies: Mus musculus, po, read-out: ED50 p.o., ES (electroshock). The procedure: (§1) The anticonvulsive effect of the compounds of the formula (I) was measured by using the electroshock test [J. Pharmacol. Exp. Ther. 106, 319 (1952)], furthermore by using various chemical agents such as pentetrazole [J. Pharmacol. Exp. Ther. 108, 168 (1953)], strychnine [J. Pharmacol. Exp. Ther. 129, 75 (1960)], bemegride, nicotine and 4-aminopyridine. The test compounds were orally administered in 3 doses, to 10 male CFLP mice per dose.

Data set [3] has as its system male CFLP mice. Description: Anticonvulsive effect in mice, bemegride. The note with it: Mus musculus, po, read-out: ED50 p.o., Bemegride. Type of data set: in vivo. As for the experimental part: as §1
Data set [4] relates to male CFLP mice. Description: Anticonvulsive effect in mice, nicotine. Format: in vivo. The following applies: Mus musculus, po. The procedure: as §1
The test system of data set [5] is male CFLP mice. The experiment in a line: Anticonvulsive effect in mice, strychnine. Type of data set: in vivo. The following applies: Mus musculus, po, read-out: ED50 p.o., Strychnine. As for the experimental part:
as §1

The subject of data set [6] is male CFLP mice. Description: Anticonvulsive effect in mice, pentetrazole. Format: in vivo. The following applies: Mus musculus, po, read-out: ED50 p.o., Pentetrazole. As for the experimental part:
as §1

Another data set can be described thus: Acute toxicity in mice. The note with it: mouse, in vivo. The procedure: The cause of mortality was respiratory insufficiency developing within 1 to 2 hours after i.p. administration and within 10 to 20 hours after oral application.
The subject of a further data set is CFLP mice. Description: Inclined screen test in mice. Type of data set: in vivo. The following applies: Mus musculus, ip, read-out: ED50 i.p., inclined screen test. An excerpt:
In Randall's inclined screen test [J. Pharmacol. Exp. Ther. 129, 163 (1960)] the compounds were applied in 3 i.p. doses to 10 CFLP mice per dose.

The subject of data set [7] is mice. Description: Rotarod test in mice. Format: in vivo. The following applies: Mus musculus, ip, read-out: ED50 i.p., rotarod test. An excerpt:
The rotarod test was used to measure muscular tone and motor co-ordination [J. Am. Pharm. Assoc. 46, 208 (1957)].

In data set [8] the test system is male CFLP mice. Description: Anticonvulsive effect in mice, 4-aminopyridine. Format: in vivo. The note with it: Mus musculus, po, read-out: ED50 p.o., 4-AP (4-aminopyridine). As for the experimental part: as §1
For data set [9], the system named is cats. Description: Effect on spinal (polysynaptic) flexor reflexes in chloralose anaesthetized cats. Format: in vivo. The following applies: Felis catus, iv. An excerpt: Res. Comm. 20, S1, 141 (1988)].
For data set [10], the system named is mice. The experiment in a line: Protection against methamphetamine-induced dopaminergic neurotoxicity, in mice. Type of data set: in vivo. The following applies: METH 2×20 mg/kg i.p., Example 128 3×5 mg/kg i.p., MK-801 3×2.5 mg/kg i.p. The procedure: High doses of methamphetamine (2×20 mg/kg i.p.) decrease the striatal level of dopamine, which can be prevented by glutamate antagonists, e.g. the NMDA-antagonist MK-801 [Science 243, 398 (1989)].

Consider `N#Cc1cc2[nH]c(=O)c(=O)[nH]c2cc1[N+](=O)[O-]` [CNQX, 1,2,3,4-tetrahydro-7-nitro-2,3-dioxo-quinoxalinecarbonitrile, reference compound], for which half-maximal inhibition with AMPA/kainate receptors (IC50) was put at 1.4 µM.
In the case of `CN1C(=O)CN=C(c2ccccc2)c2cc(Cl)ccc21` [Diazepam, 7-chloro-1,3-dihydro-1-methyl-5-phenyl-2H-1,4-benzodiazepin-2-one, reference compound], the “Effect on both dorsal root responses” value in the data set with cats [1] is “markedly potentiated”. Moreover, the minimal effective dose in the data set on cats [1] (read-out: Minimal effective dose, inhibition of polysynaptic reflexes) is below 0.1 mg/kg; in the data set with cats [1] (read-out: Minimal effective doses, potentiation of dorsal root responses) it was around 0.1 mg/kg. Also, the “Maximal inhibition of polysynaptic reflexes” value in the data set with cats [1] (partial inhibition) was at most 50%. In addition, in the data set with cats [1] (up to 3.2 mg/kg), the “Effect on monosynaptic reflexes” value was “did not affect”. The ED50 in the data set on male CFLP mice [2] is 18 mg/kg; in the data set with male CFLP mice [3], 0.58 mg/kg; with male CFLP mice [4], 1.85 mg/kg; in the data set with male CFLP mice [5], 15 mg/kg; with male CFLP mice [6], 0.86 mg/kg.
`CC1=NN=C(c2ccc(NC(=O)CN)cc2)c2cc3c(cc2C1)OCO3` [Example 66, 1-(4-Glycylaminophenyl)-4-methyl-7,8-methylenedioxy-5H-2,3-benzodiazepine]: the 50% effective dose (ED50) with male CFLP mice [2] (mice, p.o.) was 42 mg/kg; with CFLP mice (mice, i.p.), 52 mg/kg; in the data set with mice [7] (mice, i.p.), 18.5 mg/kg; in the data set on male CFLP mice [3] (mice, p.o.), above 100 mg/kg; with male CFLP mice [4], 105 mg/kg; in the data set with male CFLP mice [5], 105 mg/kg. The 50% effective dose (ED50) is 135 mg/kg in the data set on male CFLP mice [6] (mice, p.o.) and 84 mg/kg in the data set with male CFLP mice [8] (mice, p.o.). The LD50 in the data set “Acute toxicity in mice” (ip, read-out: LD50 i.p.) was found to be 205 mg/kg; in the data set “Acute toxicity in mice” (po, read-out: LD50 p.o.), 281 mg/kg.
With `CC(=O)N1N=C(c2ccc(NC(=O)CN)cc2)c2cc3c(cc2CC1C)OCO3` (stereo not drawn) [Example 73], the ED50 with male CFLP mice [2] (mice, p.o.) is 16 mg/kg; with CFLP mice (mice, i.p.), 27 mg/kg; in the data set on mice [7] (mice, i.p.), 6.3 mg/kg; with male CFLP mice [3] (mice, p.o.), 49 mg/kg; with male CFLP mice [4], 53 mg/kg; in the data set on male CFLP mice [5], above 100 mg/kg. Besides, the ED50 is 62 mg/kg in the data set with male CFLP mice [6] (mice, p.o.) and 28 mg/kg with male CFLP mice [8] (mice, p.o.). Also, the median lethal dose (LD50) in “Acute toxicity in mice” (ip, read-out: LD50 i.p.) stood at 143 mg/kg; in “Acute toxicity in mice” (po, read-out: LD50 p.o.), 168 mg/kg.
With `CNC(=O)N1N=C(c2ccc(N)cc2)c2cc3c(cc2CC1C)OCO3` (stereo not drawn) [Example 98, 1-(4-Aminophenyl)-3-methylcarbamoyl-4-methyl-7,8-methylenedioxy-3,4-dihydro-5H-2,3-benzodiazepine], the ED50 turned out to be 0.14 mg/kg in the data set on cats [9]; 17.1 mg/kg with male CFLP mice [2]; 18 mg/kg in the data set with CFLP mice; 8.6 mg/kg in the data set with mice [7]; 11 mg/kg in the data set on male CFLP mice [3]; 19 mg/kg in the data set on male CFLP mice [4]. The 50% effective dose (ED50) with male CFLP mice [5] came out at 29 mg/kg; in the data set on male CFLP mice [6], 21.3 mg/kg; in the data set on male CFLP mice [8], 13.5 mg/kg. Also, the median lethal dose (LD50) in the data set “Acute toxicity in mice” (ip, read-out: LD50 i.p.) worked out at 93.1 mg/kg; in “Acute toxicity in mice” (po, read-out: LD50 p.o.) it was 96.6 mg/kg. In the data set with AMPA/kainate receptors, this molecule came in with an IC50 of 12.6 µM.
For the molecule `C[C@]12N[C@H](Cc3ccccc31)c1ccccc12` [MK-801, (+)-10,11-dihydro-5-methyl-5H-dibenzo[a,d]cyclohepten-5,10-imine (Z)-2-butene-dioate, reference compound], in the data set on mice [10] (% of saline group), the “(DOPAC + HVA)/DA, %” value was 132% and the “DA, %” value amounted to 66%. Besides, the “(DOPAC + HVA)/DA, mean ± SE” value in the data set on mice [10] (striatal dopamine turnover) is 0.33 ± 0.06. The “DA, μg/g tissue, mean ± SE” value with mice [10] (striatal dopamine) was found to be 10.01 ± 1.10 μg/g tissue.
The molecule `NS(=O)(=O)c1cccc2c1c([N+](=O)[O-])cc1[nH]c(=O)c(=O)[nH]c12` [NBQX, 1,2,3,4-tetrahydro-6-nitro-2,3-dioxo-benzo(f)quinoxaline-7-sulfonamide, reference compound] returned an ED50 with cats [9] of 0.91 mg/kg.
